Drawing on patent US8076356B2, “Triazolopyridinylsulfanyl derivatives as P38 map kinase inhibitors” (Pfizer Inc., priority 2004, dated 2011), this text covers IC50 for 34 compounds.

The term IC50 denotes the concentration at which inhibition is half-maximal.

This experiment deals with TNFα release from human peripheral blood mononuclear cells. Description: TNFα screen. It is filed as cell-based. Particulars: LPS-stimulated human peripheral blood mononuclear cells, 18 hours incubation, TNFα in supernatant by ELISA, read-out: TNF IC50. As to the method:
Venous blood is collected from healthy volunteers and the mononuclear cells purified by centrifugation through Histopaque (Ficoll) cushions. TNFα production from these cells is stimulated by addition of lipopolysaccharide. After 18 hours incubation in the presence of LPS, the cell supernatant is removed and the concentration of TNFα in the supernatant determined by ELISA.
For orientation: In an ELISA, binding on a coated surface is turned into a signal by an enzyme label.

Read-outs that look alike come from different tables or passages of the source.

As for `CSC(C)(C)c1cc(NC(=O)NCc2ccccc2Sc2ccc3nnc(C(C)C)n3c2)n(-c2cccc(O)c2)n1` [Example 26, N-{1-(3-Hydroxyphenyl)-3-[1-methyl-1-(methylthio)ethyl]-1H-pyrazol-5-yl}-N′-{2-[(3-isopropyl[1,2,4]triazolo[4,3-a]pyridin-6-yl)thio]benzyl}urea], where the note is “PBMC”, the half-maximal inhibitory concentration (IC50) is 1.6 nM.

With `COc1ccc(-n2nc(C(C)(C)C)cc2NC(=O)NCc2ccccc2Sc2ccc3nnc(C(C)C)n3c2)cc1Cl` [Example 33, N-[3-tert-Butyl-1-(3-chloro-4-methoxyphenyl)-1H-pyrazol-5-yl]-N′-{2-[(3-isopropyl[1,2,4]triazolo[4,3-a]pyridin-6-yl)thio]-benzyl}urea], the 50% inhibitory concentration (IC50) (PBMC) worked out at 2 nM.

Turning to `CC(C)c1nnc2ccc(Sc3ccccc3CNC(=O)Nc3cc(C(C)(C)C)nn3-c3cccnc3)cn12` [Example 34, N-(3-tert-Butyl-1-pyridin-3-yl-1H-pyrazol-5-yl)-N′-{2-[(3-isopropyl[1,2,4]triazolo[4,3-a]pyridin-6-yl)thio]benzyl}-urea], the IC50 (PBMC) was 1.3 nM.

As to `Cc1ccc(-n2nc(C(C)(C)C)cc2NC(=O)NCc2ccccc2Sc2ccc3nnc(-c4cccc(O)c4Cl)n3c2)cc1` [Example 36, N-[3-tert-Butyl-1-(4-methylphenyl)-1H-pyrazol-5-yl]-N′-(2-{[3-(2-chloro-3-hydroxyphenyl)[1,2,4]triazolo[4,3-a]pyridin-6-yl]thio}benzyl)urea], the concentration for half-maximal inhibition (IC50) (PBMC) came out at 4.8 nM.

`CSC(C)(C)c1cc(NC(=O)NCc2ccccc2Sc2ccc3nnc(C(C)C)n3c2)n(-c2cccc(OCCO)c2)n1` [Example 37]: the IC50 (PBMC) worked out at 2.8 nM.

Turning to `CC(C)c1ccccc1-c1nnc2ccc(Sc3ccccc3CNC(=O)Nc3cc(C(C)(C)C)nn3-c3cccc(OCCO)c3)cn12` [Example 44, N-{3-tert-Butyl-1-[3-(2-hydroxyethoxy)phenyl]-1H-pyrazol-5-yl}-N′-(2-{[3-(2-isopropylphenyl)[1,2,4]triazolo[4,3-a]pyridin-6-yl]thio}benzyl)urea], where the note is “PBMC”, the IC50 came to 1.1 nM.

In the case of `COc1ccccc1-c1nnc2ccc(Sc3ccccc3CNC(=O)Nc3cc(C(C)(C)C)nn3-c3cccc(OCCO)c3)cn12` [Example 45, N-{3-tert-Butyl-1-[3-(2-hydroxyethoxy)phenyl]-1H-pyrazol-5-yl}-N′-(2-{[3-(2-methoxyphenyl)[1,2,4]triazolo[4,3-a]pyridin-6-yl]thio}benzyl)urea], where the note is “PBMC”, the 50% inhibitory concentration (IC50) was found to be 1.4 nM.

On to `CC(C)(C)c1cc(NC(=O)NCc2ccccc2Sc2ccc3nnc(-c4ccccc4O)n3c2)n(-c2ccc(F)cc2)n1` [Example 46, N-[3-tert-Butyl-1-(4-fluorophenyl)-1H-pyrazol-5-yl]-N′-(2-{[3-(2-hydroxyphenyl)[1,2,4]triazolo[4,3-a]pyridin-6-yl]thio}benzyl)urea], for which, under “PBMC”, the IC50 was 0.8 nM.

`CC(C)(C)c1cc(NC(=O)NCc2ccccc2Sc2ccc3nnc(-c4ccccc4O)n3c2)n(-c2cccc(C#N)c2)n1` [Example 51]: the IC50 was determined as 0.7 nM.

Consider `CC(C)(C)c1cc(NC(=O)NCc2ccccc2Sc2ccc3nnc(-c4ccccc4Cl)n3c2)n(-c2cccc(O)c2)n1` [Example 54], for which the IC50 was 0.7 nM.

As to `CC(C)(C)c1cc(NC(=O)NCc2ccccc2Sc2ccc3nnc(-c4ccccc4O)n3c2)n(-c2cccc(O)c2)n1` [Example 55], the IC50 was 0.9 nM.

Regarding `Cc1cc(O)cc(-n2nc(C(C)(C)C)cc2NC(=O)NCc2ccccc2Sc2ccc3nnc(C(C)C)n3c2)c1` [Example 57], the 50% inhibitory concentration (IC50) was determined as 1.2 nM.

For the compound `Cc1cccc(-n2nc(C(C)(C)C)cc2NC(=O)NCc2ccccc2Sc2ccc3nnc(-c4cc(Cl)ccc4O)n3c2)c1` [Example 58], the IC50 was 1.6 nM.

On to `CSCC(C)(C)c1cc(NC(=O)NCc2ccccc2Sc2ccc3nnc(-c4ccccc4O)n3c2)n(-c2cccc(OCCO)c2)n1` [Example 59], for which the 50% inhibitory concentration (IC50) is 1.3 nM.

Turning to `CSCC(C)(C)c1cc(NC(=O)NCc2ccccc2Sc2ccc3nnc(-c4ccccc4O)n3c2)n(-c2ccccc2)n1` [Example 60], the half-inhibitory concentration (IC50) is 1.4 nM.

For the compound `CSCC(C)(C)c1cc(NC(=O)NCc2ccccc2Sc2ccc3nnc(-c4ccccc4O)n3c2)n(-c2cccc(F)c2)n1` [Example 63], the IC50 worked out at 1.4 nM.

On to `CSCC(C)(C)c1cc(NC(=O)NCc2ccccc2Sc2ccc3nnc(-c4ccccc4O)n3c2)n(-c2ccc(F)c(F)c2)n1` [Example 64], for which the IC50 came out at 0.9 nM.

`CC(C)(C)c1cc(NC(=O)NCc2ccccc2Sc2ccc3nnc(-c4ccccc4O)n3c2)n(-c2cccnc2)n1` [Example 70, N-(3-tert-Butyl-1-pyridin-3-yl-1H-pyrazol-5-yl)-N′-(2-{[3-(2-hydroxyphenyl)[1,2,4]triazolo[4,3-a]pyridin-6-yl]thio}benzyl)urea]: the IC50 (PBMC) is 0.9 nM.

`CC(C)(C)c1cc(NC(=O)NCc2ccccc2Sc2ccc3nnc(-c4ccccc4O)n3c2)n(-c2ccccn2)n1` [Example 71, N-(3-tert-Butyl-1-pyridin-2-yl-1H-pyrazol-5-yl)-N′-(2-{[3-(2-hydroxyphenyl)[1,2,4]triazolo[4,3-a]pyridin-6-yl]thio}benzyl)urea]: where the note is “PBMC”, the half-maximal inhibitory concentration (IC50) stood at 3 nM.

With `CC(C)c1nnc2ccc(Sc3ccccc3CNC(=O)Nc3cc(C(C)(C)C)nn3-c3ccc(O)c(Cl)c3)cn12` [Example 73], the IC50 worked out at 0.9 nM.

As for `CCc1cc(-n2nc(C(C)(C)C)cc2NC(=O)NCc2ccccc2Sc2ccc3nnc(C(C)C)n3c2)ccc1O` [Example 74], the half-inhibitory concentration (IC50) came out at 4 nM.

Regarding `CC(C)c1nnc2ccc(Sc3ccccc3CNC(=O)Nc3cc(C(C)(C)C)nn3-c3ccc(Cl)c(O)c3)cn12` [Example 76], the IC50 amounted to 0.8 nM.

`CC(C)(C)c1cc(NC(=O)NCc2ccccc2Sc2ccc3nnc(-c4ccc(O)cc4Cl)n3c2)n(-c2ccc(F)c(F)c2)n1` [Example 77]: the IC50 stood at 2.7 nM.

In the case of `CC(C)(C)c1cc(NC(=O)NCc2ccccc2Sc2ccc3nnc(-c4cc(O)ccc4Cl)n3c2)n(-c2ccc(F)c(F)c2)n1` [Example 78], the IC50 was 0.8 nM.

With `CC(C)(C)c1cc(NC(=O)NCc2ccccc2Sc2ccc3nnc(-c4ccccc4O)n3c2)n(-c2cccc(OCCO)c2)n1` [Example 80, N-{3-tert-Butyl-1-[3-(2-hydroxyethoxy)phenyl]-1H-pyrazol-5-yl}-N′-(2-{[3-(2-hydroxyphenyl)[1,2,4]triazolo[4,3-a]pyridin-6-yl]thio}benzyl)urea], where the note is “PBMC”, the 50% inhibitory concentration (IC50) came out at 1.1 nM.

Turning to `CSC(C)(C)c1cc(NC(=O)NCc2ccccc2Sc2ccc3nnc(-c4cc(Cl)ccc4O)n3c2)n(-c2cccc(C)c2)n1` [Example 86, N-(2-{[3-(5-Chloro-2-hydroxyphenyl)[1,2,4]triazolo[4,3-a]pyridin-6-yl]thio}benzyl)-N′-[3-[1-methyl-1-(methylthio)ethyl]-1-(3-methylphenyl)-1H-pyrazol-5-yl]urea], the half-inhibitory concentration (IC50) (PBMC) was determined as 0.8 nM.

Take `CSC(C)(C)c1cc(NC(=O)NCc2ccccc2Sc2ccc3nnc(-c4cc(Cl)ccc4O)n3c2)n(-c2ccc(C)cc2)n1` [Example 87, N-(2-{[3-(5-Chloro-2-hydroxyphenyl)[1,2,4]triazolo[4,3-a]pyridin-6-yl]thio}benzyl)-N′-[3-[1-methyl-1-(methylthio)ethyl]-1-(4-methylphenyl)-1H-pyrazol-5-yl]urea]: the IC50 (PBMC) was found to be 0.6 nM.

`CSc1ccccc1-c1nnc2ccc(Sc3ccccc3CNC(=O)Nc3cc(C(C)(C)C)nn3-c3cccc(O)c3)cn12` [Example 93, N-[3-tert-Butyl-1-(3-hydroxyphenyl)-1H-pyrazol-5-yl]-N′-[2-({3-[2-(methylthio)phenyl][1,2,4]triazolo[4,3-a]pyridin-6-yl}thio)benzyl]urea]: the half-maximal inhibitory concentration (IC50) (PBMC) came out at 1.1 nM.

`CSC(C)(C)c1cc(NC(=O)NCc2ccccc2Sc2ccc3nnc(-c4ccccc4O)n3c2)n(-c2ccc(F)cc2)n1` [Example 94, N-{1-(4-Fluorophenyl)-3-[1-methyl-1-(methylthio)ethyl]-1H-pyrazol-5-yl}-N′-(2-{[3-(2-hydroxyphenyl)[1,2,4]triazolo[4,3-a]pyridin-6-yl]thio}benzyl)urea]: the IC50 (PBMC) came out at 0.9 nM.

In the case of `CSC(C)(C)c1cc(NC(=O)NCc2ccccc2Sc2ccc3nnc(-c4ccccc4O)n3c2)n(-c2ccc(F)c(F)c2)n1` [Example 95, N-{1-(3,4-Difluorophenyl)-3-[1-methyl-1-(methylthio)ethyl]-1H-pyrazol-5-yl}-N′-(2-{[3-(2-hydroxyphenyl)[1,2,4]triazolo[4,3-a]pyridin-6-yl]thio}benzyl)urea], the concentration for half-maximal inhibition (IC50) (PBMC) was determined as 0.6 nM.

With `COc1ccc(-n2nc(C(C)(C)C)cc2NC(=O)NCc2ccccc2Sc2ccc3nnc(-c4ccccc4O)n3c2)cc1` [Example 97, N-[3-tert-Butyl-1-(4-methoxyphenyl)-1H-pyrazol-5-yl]-N′-(2-{[3-(2-hydroxyphenyl)[1,2,4]triazolo[4,3-a]pyridin-6-yl]thio}benzyl)urea], the IC50 (PBMC) came to 0.6 nM.

For `COc1cccc(-n2nc(C(C)(C)C)cc2NC(=O)NCc2ccccc2Sc2ccc3nnc(-c4ccccc4O)n3c2)c1` [Example 98, N-[3-tert-Butyl-1-(3-methoxyphenyl)-1H-pyrazol-5-yl]-N′-(2-{[3-(2-hydroxyphenyl)[1,2,4]triazolo[4,3-a]pyridin-6-yl]thio}benzyl)urea], the IC50 (PBMC) was found to be 0.4 nM.

`CCC(C)(C)c1cc(NC(=O)NCc2ccccc2Sc2ccc3nnc(-c4ccccc4O)n3c2)n(-c2cccc(OCCO)c2)n1` [Example 100]: the IC50 (PBMC) came to 1.1 nM.

On to `CCc1ccccc1-c1nnc2ccc(Sc3ccccc3CNC(=O)Nc3cc(C(C)(C)SC)nn3-c3cccc(OCCO)c3)cn12` [Example 102, N-(2-{[3-(2-Ethylphenyl)[1,2,4]triazolo[4,3-a]pyridin-6-yl]thio}benzyl)-N′-{1-[3-(2-hydroxyethoxy)phenyl]-3-[1-methyl-1-(methylthio)ethyl]-1H-pyrazol-5-yl}urea], for which the IC50 (PBMC) turned out to be 1.7 nM.
